How the values were obtained:
[1] = test system: luciferase expression in the liver; assay: In vivo luciferase mRNA expression in liver after tail vein injection of FLuc mRNA lipid nanoparticles; parameters: species or system mice; settings: liver 5 hours after administration, FLuc mRNA LNP 50% cationic lipid/10% DSPC/40% cholesterol/1.5% PEG-DMG; for Liver Luc @ 0.3 mg/kg dose: 0.3 mg mRNA/kg; for Liver Luc @ 1.0 mg/kg dose: 1.0 mg mRNA/kg
Description: […] Lipid nanoparticles (LNPs) were prepared in a total lipid to mRNA weight ratio of about 10:1 to 30:1. mRNA was diluted to 0.15 mg/ml in 10 to 50 ml citrate buffer (pH=4). Using a syringe pump, an ethanolic solution of lipids was mixed with an aqueous mRNA solution in a ratio of approximately 1:5 to 1:3 (volume/volume) at a total flow rate of more than 15 ml/min. Then ethanol was removed and the external buffer replaced by dialysis with PBS. Finally, the lipid nanoparticles were filtered through a 0.2 um pore size sterile filter. The particle size of lipid nanoparticles as determined by quasi-elastic light scattering using Malvern Zetasizer Nano ZS was approximately 65-105 nm in diameter and, in some cases, approximately 75-100 nm in diameter.
The in vivo study was conducted on female mice aged 6-8 weeks and mice aged 8-10 weeks according to guidelines developed by the National Council for Science and Technology. Different doses of mRNA lipid nanoparticles were administered systemically via tail vein injection and the animals euthanized at specific time points (e.g., 5 hours) after dosing. The liver and spleen were collected in pre-weighed tubes, their weights determined, frozen immediately in liquid nitrogen, and stored at −80° C. until use for analysis.
For the liver, approximately 50 mg of liver tissue was cut for analysis and placed in 2 mL FastPrep tubes (MP Biomedicals, Solon OH). ¼″ ceramic beads (MP Biomedicals) and 500 μL of Glo Lysis Buffer-GLB (Promega, Madison WI) were added to each tube and the contents equilibrated to room temperature. The liver tissue was then homogenized for 15 seconds at 2×6.0 m/s using a FastPrep24 instrument (MP Biomedicals). The homogenates were incubated for 5 minutes at room temperature followed by a ¼ dilutions in GLB and evaluated using the SteadyGlo luciferase assay system (Promega). Specifically, 50 μL of diluted tissue homogenate was reacted with 50 μL of SteadyGlo substrate, shaken for 10 seconds, followed by incubation for 5 minutes and quantified using a CentroXS3LB 960 photometer (Berthold Technologies, Germany). The amount of protein was determined using a BCA Protein Assay Kit (Pierce, Rockford IL). Relative luminescence units (RLU) were then normalized to the total ug of the measured protein. To convert RLU into ng luciferase, a standard curve was generated with QuantiLum recombinant luciferase (Promega).
FLuc mRNA (L-6107) from Trilink Biotechnologies will express luciferase protein, and was originally isolated from fireflies (Photinus pyralis). Fluc is commonly used in mammalian cell cultures to measure gene expression and cell viability. It emits biologic light in the presence of the substrate luciferin. This capped and polyadenylated mRNA was completely replaced by 5-methylcytidine and pseudouridine. […]

[2] = Determination of the pKa of cationic lipids in lipid nanoparticles by TNS fluorescence analysis
Description: The pKa of each cationic lipid was determined in lipid nanoparticles using fluorescence analysis based on 2-(p-toluidine)-6-naphthalenesulfonic acid (TNS). As described in Example 3, lipid nanoparticles containing cationic lipids/DSPC/cholesterol/PEG lipids (50/10/40/1.5 mol %) at a concentration of 0.4 mM total lipid in PBS were prepared using an ordered method. 100 μM stock solution was prepared with TNS in distilled water. The vesicles were diluted to contain 24 μM lipid in 2 mL of a buffer solution containing 10 mM HEPES, 10 mM MES, 10 mM acetic acid, 130 mM NaCl, and having a pH of 2.5 to 11. The equal TNS solution was added to produce a final concentration of 1 uM, and after vortex mixing, fluorescence intensity was measured in a SLM Aminco Series 2 luminescence spectrophotometer at room temperature using excitation and emission wavelengths of 321 nm and 445 nm. Fluorescence data were analyzed using a sigmoidal best fit and pKa was measured as the pH producing half-maximal fluorescence intensity.

pKa [2]	Compound	Liver Luc @ 0.3 mg/kg dose [1]	Liver Luc @ 1.0 mg/kg dose [1]
	2-heptylnonyl 8-((2-hydroxyethyl) (6-oxo-6-(undecyloxy)hexyl)amino)octanoate [Compound B]	134 ± 40 ng luciferase/g liver	522 ± 210 ng luciferase/g liver
6.01	CCCCCCCCCCCOC(=O)CCCCCN(CCO)CCCCCCCC(=O)OCC(CCCCCCCC)CCCCCCCC [Compound A, 2-octyldecyl 8-((2-hydroxyethyl) (6-oxo-6-(undecyloxy)hexyl)amino)octanoate]	156 ± 50 ng luciferase/g liver	550 ± 200 ng luciferase/g liver
